Measured values published in PubChem BioAssay AID2060891 (Molecular Pharmacology Branch, DTP, NCI, 2025).

Tested on: K98450-129-R-PDC complex spheroid growth, percent test/control
Assay: Anticancer human tumor K98450-129-R-PDC patient-derived colon adenocarcinoma cell line growth inhibition [RAS]
Details: for IC50: curve of first compound; for viability, T/C: stronger effect = lower value
Summary of the method: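 Multi-cell-type spheroids: tumor cells plus HUVEC endothelial cells and mesenchymal stem cells. RAS-pathway inhibitors were combined with targeted agents, each dosed in half-log steps down from clinical Cmax, or from 10 microM when Cmax was unknown.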

[1] = second compound 0.000949 µM, first compound 0.0316 µM
[2] = second compound 0.000949 µM, first compound 0.1 µM
[3] = second compound 0.000949 µM, first compound 0.316 µM
[4] = second compound 0.000949 µM, first compound 1 µM
[5] = second compound 0.000949 µM, first compound 3.16 µM
[6] = second compound 0.000949 µM, first compound 10 µM
[7] = second compound 0.003 µM, first compound 0.0316 µM
[8] = second compound 0.003 µM, first compound 0.1 µM
[9] = second compound 0.003 µM, first compound 0.316 µM
[10] = second compound 0.003 µM, first compound 1 µM
[11] = second compound 0.003 µM, first compound 3.16 µM
[12] = second compound 0.003 µM, first compound 10 µM
[13] = second compound 0.00949 µM, first compound 0.0316 µM
[14] = second compound 0.00949 µM, first compound 0.1 µM
[15] = second compound 0.00949 µM, first compound 0.316 µM
[16] = second compound 0.00949 µM, first compound 1 µM
[17] = second compound 0.00949 µM, first compound 3.16 µM
[18] = second compound 0.00949 µM, first compound 10 µM
[19] = second compound 0.03 µM, first compound 0.0316 µM
[20] = second compound 0.03 µM, first compound 0.1 µM
[21] = second compound 0.03 µM, first compound 0.316 µM
[22] = second compound 0.03 µM, first compound 1 µM
[23] = second compound 0.03 µM, first compound 3.16 µM
[24] = second compound 0.03 µM, first compound 10 µM
[25] = second compound 0.0949 µM, first compound 0.0316 µM
[26] = second compound 0.0949 µM, first compound 0.1 µM
[27] = second compound 0.0949 µM, first compound 0.316 µM
[28] = second compound 0.0949 µM, first compound 1 µM
[29] = second compound 0.0949 µM, first compound 3.16 µM
[30] = second compound 0.0949 µM, first compound 10 µM
[31] = second compound 0.3 µM, first compound 0.0316 µM
[32] = second compound 0.3 µM, first compound 0.1 µM
[33] = second compound 0.3 µM, first compound 0.316 µM
[34] = second compound 0.3 µM, first compound 1 µM
[35] = second compound 0.3 µM, first compound 3.16 µM
[36] = second compound 0.3 µM, first compound 10 µM
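Also: spheroids exposed to agents for seven days before the viability readout.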
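For viability, T/C in this document: luminescence used as a proxy for viable cell amount.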

`CC(Nc1ccc2c(c1)OCCn1cc(N3C(=O)OCC3C(F)F)nc1-2)C(N)=O` (centres undefined) + CCn1c(-c2cc(N3CCN(C)CC3)cnc2C(C)OC)c2c3cc(ccc31)-c1csc(n1)CC(NC(=O)C1CC1C)C(=O)N1CCCC(N1)C(=O)OCC(C)(C)C2 was tested, and the IC50 (second compound 0.000949 µM) was greater than 10 µM, the IC50 (second compound 0.003 µM) was greater than 10 µM and the IC50 (second compound 0.00949 µM) was greater than 10 µM. For the same compound, the IC50 (second compound 0.03 µM) was less than 0.0316 µM, the IC50 (second compound 0.0949 µM) was less than 0.0316 µM and the IC50 (second compound 0.3 µM) was less than 0.0316 µM. The viability, T/C [1] was 93.6%, the viability, T/C [2] was 83.7% and the viability, T/C [3] was 86.7%. The viability, T/C [4] was 63.9%, the viability, T/C [5] was 70.4% and the viability, T/C [6] was 61.7%. It also gave a viability, T/C [7] of 84%, a viability, T/C [8] of 81.1% and a viability, T/C [9] of 75.2%. For the same compound, the viability, T/C [10] was 67.5%, the viability, T/C [11] was 68.4% and the viability, T/C [12] was 61.3%. The viability, T/C [13] was 73.8%, the viability, T/C [14] was 74.8% and the viability, T/C [15] was 60.5%. For the same compound, the viability, T/C [16] was 55.4%, the viability, T/C [17] was 54.8% and the viability, T/C [18] was 51%. The viability, T/C [19] was 38.4%, the viability, T/C [20] was 48.4% and the viability, T/C [21] was 42.3%. It also gave a viability, T/C [22] of 35.4%, a viability, T/C [23] of 33.8% and a viability, T/C [24] of 26.8%. The viability, T/C [25] was 17.5%, the viability, T/C [26] was 15.9% and the viability, T/C [27] was 16%. It also gave a viability, T/C [28] of 14.7%, a viability, T/C [29] of 10.8% and a viability, T/C [30] of 10.1%. The viability, T/C [31] was 10%, the viability, T/C [32] was 10.2% and the viability, T/C [33] was 9.37%. For the same compound, the viability, T/C [34] was 8.15%, the viability, T/C [35] was 7.17% and the viability, T/C [36] was 4.8%.
For `C[C@@H](NC(=O)c1ncnc(N)c1Cl)c1ncc(C(=O)Nc2cc(C(F)(F)F)c(Cl)cn2)s1` + CCn1c(-c2cc(N3CCN(C)CC3)cnc2C(C)OC)c2c3cc(ccc31)-c1csc(n1)CC(NC(=O)C1CC1C)C(=O)N1CCCC(N1)C(=O)OCC(C)(C)C2, the IC50 (second compound 0.000949 µM) was greater than 10 µM, the IC50 (second compound 0.003 µM) was greater than 10 µM and the IC50 (second compound 0.00949 µM) was greater than 10 µM. The IC50 (second compound 0.03 µM) was greater than 10 µM, the IC50 (second compound 0.0949 µM) was less than 0.0316 µM and the IC50 (second compound 0.3 µM) was less than 0.0316 µM. It also gave a viability, T/C [1] of 105%, a viability, T/C [2] of 103% and a viability, T/C [3] of 106%. The viability, T/C [4] was 97.2%, the viability, T/C [5] was 103% and the viability, T/C [6] was 90.5%. For the same compound, the viability, T/C [7] was 105%, the viability, T/C [8] was 88.8% and the viability, T/C [9] was 88.4%. For the same compound, the viability, T/C [10] was 90.7%, the viability, T/C [11] was 110% and the viability, T/C [12] was 77.1%. The viability, T/C [13] was 76.1%, the viability, T/C [14] was 70.7% and the viability, T/C [15] was 81.8%. It also gave a viability, T/C [16] of 88.8%, a viability, T/C [17] of 75.3% and a viability, T/C [18] of 62.4%. The viability, T/C [19] was 57.7%, the viability, T/C [20] was 62.3% and the viability, T/C [21] was 74.1%. For the same compound, the viability, T/C [22] was 67.3%, the viability, T/C [23] was 73.9% and the viability, T/C [24] was 51.5%. For the same compound, the viability, T/C [25] was 25.3%, the viability, T/C [26] was 31.9% and the viability, T/C [27] was 37%. For the same compound, the viability, T/C [28] was 31.9%, the viability, T/C [29] was 37.3% and the viability, T/C [30] was 17.8%. For the same compound, the viability, T/C [31] was 11.4%, the viability, T/C [32] was 14.6% and the viability, T/C [33] was 16.4%. For the same compound, the viability, T/C [34] was 13.5%, the viability, T/C [35] was 16% and the viability, T/C [36] was 11%.
